Measured values as given in US4398023A, “β-1,3-Glucanpolyol, process for preparation thereof, and utilization thereof” (Meito Sangyo Kabushiki Kaisha, priority 1979, dated 1983).

Experiments:
Sarcoma 180 [1] = experiment: Antitumor activity test using Sarcoma 180 in Balb/c mice; format: in vivo; conditions: intraperitoneal, once a day for 10 days, fifth week
Description: (§1) The ascites cells of Sarcoma 180 were inoculated peritoneally in ICR-JCL mice having a body weight of about 23 g. […] Starting 24 hours after the transplantation, the glucanpolyol of this invention was intraperitoneally administered once a day for 10 days. In the fifth week, the tumor was enucleated and its weight was compared with that in non-treated groups. The tumor inhibition ratio was calculated, and the number of tumors which completely regressed was observed.
(§2) The tumor inhibition ratio was calculated in accordance with the following equation. [formula] wherein C is the average weight of tumor in non-treated groups (10 mice per group),
(§3) T is the average weight of tumor in treated groups (10 mice per group).
(5) An antitumor activity test using Sarcoma 180 in Balb/c mice
Six million Sarcoma 180 cells were transplanted into the subcutaneous portion of the right inguinal part of the Balb/c mice having a body weight of about 23 g, and then, the same operation as in (1 ) above was performed.

Sarcoma 180 [2] = experiment: Antitumor activity test using Sarcoma 180 in C57 BL/6 mice; format: in vivo; conditions: intraperitoneal, once a day for 10 days, fifth week
Description: as §1, §2, §3
(6) An antitumor activity test using Sarcoma 180 in C57 BL/6 mice
Six million Sarcoma 180 cells were transplanted into the subcutaneous portion of the right inguinal part of the C57 BL/6 mice having a body weight of about 20 g, and then the same operation as in (1) above was performed.

[3] = test system: NTF-reticulum cell sarcoma; experiment: Antitumor activity test using NTF-reticulum cell sarcoma in ICR-JCL mice; format: in vivo; conditions: intraperitoneal, once a day for 10 days, fifth week
Description: as §1, §2, §3
(9) An antitumor activity test using NTF-reticulum cell sarcoma in ICR-JCL mice
Six million NFT-reticulum cell sarcoma cells were transplanted into the subcutaneous portion of the right inguinal part of ICR-JCL mice having a body weight of about 23 g, and then, the same operation as in (1) above was performed.

CCM-adenocarcinoma = experiment: Antitumor activity test using CCM-adenocarcinoma in ICR-JCL mice; format: in vivo; conditions: intraperitoneal, once a day for 10 days, fifth week
Description: as §1, §2, §3
(8) An antitumor activity test using CCM-adenocarcinoma in ICR-JCL mice
Six million CCM-adenocarcinoma cells were transplanted into the subcutaneous portion of the right inguinal part of ICR-JCL mice having a body weight of about 23 g, and then the same operation as in (1) above was performed.

Ehrlich Carcinoma = experiment: Antitumor activity test using Ehrlich Carcinoma in ICR-JCL mice; format: in vivo; conditions: intraperitoneal, once a day for 10 days, fifth week
Description: (§4) Starting 24 hours after the transplantation, the glucanpolyol of this invention was intraperitoneally administered once a day for 10 days. In the fifth week, the tumor was enucleated and its weight was compared with that in non-treated groups. The tumor inhibition ratio was calculated, and the number of tumors which completely regressed was observed.
as §2, §3
(2) An antitumor activity test using Ehrlich Carcinoma in ICR-JCL mice

Sarcoma 180 [4] = experiment: Antitumor activity test using Sarcoma 180 in C3H/He mice; format: in vivo; conditions: intraperitoneal, once a day for 10 days, fifth week
Description: as §4, §2, §3
(4) An antitumor activity test using Sarcoma 180 in C3H/He mice

Sarcoma 180 [5] = experiment: Antitumor activity test using Sarcoma 180 in ddY mice; format: in vivo; conditions: intraperitoneal, once a day for 10 days, fifth week
Description: as §1, §2, §3
(7) An antitumor activity test using Sarcoma 180 in ddY mice
Six million Sarcoma 180 cells were transplanted into the subcutaneous portion of the right inguinal part of ddY mice having a body weight of about 23 g, and then, the same operation as in (1) above was performed.

ICR-JCL mice = experiment: Toxicity (LD50) on ICR-JCL mice; format: in vivo
Excerpt: The toxicity of the β-1,3-glucanpolyol of this invention is very low, and the LD50 values of the products obtained in Examples 1, 4 and 5, for example, on ICR-JCL mice are as shown in Table 10.

Meth-A = experiment: Antitumor activity test using Meth-A in Balb/c mice; format: in vivo; conditions: intraperitoneal, once a day for 10 days, fifth week
Description: as §4, §2, §3
(3) An antitumor activity test using Meth-A in Balb/c mice

Sarcoma 180 [6] = experiment: Antitumor activity test using Sarcoma 180 in ICR-JCL mice; format: in vivo; conditions: intraperitoneal, once a day for 10 days, fifth week
Description: (1) An antitumor activity test using Sarcoma 180 in ICR-JCL mice
as §4, §2, §3

[7] = Intrinsic viscosity [.eta.]; format: physicochemical; conditions: 25° C., aqueous solution; concentration in g/100 ml
Description: The intrinsic viscosity, as used in the present invention, is [.eta.] defined by the following equation. [formula] wherein .eta.sp =(.eta.-.eta.o)/.eta.o =/.eta.o -1 in which .eta. is the viscosity (at 25° C. in aqueous solution) of the solution and .eta.o is the viscosity of the solvent; and C is the concentration in g/100 ml.

β-1,3-glucanpolyol [Example 4]
Average weight of tumor (Sarcoma 180 [1]; 1 mg/kg/day): 0 g
Complete regression (Sarcoma 180 [1]; 1 mg/kg/day): 10/10
Tumor inhibition ratio (Sarcoma 180 [1]; 1 mg/kg/day): 100%
Average weight of tumor (Sarcoma 180 [1]; 5 mg/kg/day): 0 g
Complete regression (Sarcoma 180 [1]; 5 mg/kg/day): 10/10
Tumor inhibition ratio (Sarcoma 180 [1]; 5 mg/kg/day): 100%
Average weight of tumor (Sarcoma 180 [2]; 1 mg/kg/day): 0.13 g
Complete regression (Sarcoma 180 [2]; 1 mg/kg/day): 9/10
Tumor inhibition ratio (Sarcoma 180 [2]; 1 mg/kg/day): 96.4%
Average weight of tumor (Sarcoma 180 [2]; 5 mg/kg/day): 0.12 g
Complete regression (Sarcoma 180 [2]; 5 mg/kg/day): 9/10
Tumor inhibition ratio (Sarcoma 180 [2]; 5 mg/kg/day): 96.6%
Average weight of tumor ([3]; 1 mg/kg/day): 0.67 g
Complete regression ([3]; 1 mg/kg/day): 8/10
Tumor inhibition ratio ([3]; 1 mg/kg/day): 88.3%
Average weight of tumor ([3]; 5 mg/kg/day): 0.83 g
Complete regression ([3]; 5 mg/kg/day): 6/10
Tumor inhibition ratio ([3]; 5 mg/kg/day): 85.6%
Average weight of tumor (CCM-adenocarcinoma; 1 mg/kg/day): 0 g
Complete regression (CCM-adenocarcinoma; 1 mg/kg/day): 10/10
Tumor inhibition ratio (CCM-adenocarcinoma; 1 mg/kg/day): 100%
Average weight of tumor (CCM-adenocarcinoma; 5 mg/kg/day): 0.23 g
Complete regression (CCM-adenocarcinoma; 5 mg/kg/day): 8/10
Tumor inhibition ratio (CCM-adenocarcinoma; 5 mg/kg/day): 98.1%
Average weight of tumor (Ehrlich Carcinoma; 1 mg/kg/day): 1.48 g
Complete regression (Ehrlich Carcinoma; 1 mg/kg/day): 6/10
Tumor inhibition ratio (Ehrlich Carcinoma; 1 mg/kg/day): 90.1%
Average weight of tumor (Ehrlich Carcinoma; 5 mg/kg/day): 0.97 g
Complete regression (Ehrlich Carcinoma; 5 mg/kg/day): 6/10
Tumor inhibition ratio (Ehrlich Carcinoma; 5 mg/kg/day): 93.5%
Average weight of tumor (Sarcoma 180 [4]; 1 mg/kg/day): 5.62 g
Complete regression (Sarcoma 180 [4]; 1 mg/kg/day): 0/10
Tumor inhibition ratio (Sarcoma 180 [4]; 1 mg/kg/day): 56.5%
Average weight of tumor (Sarcoma 180 [4]; 5 mg/kg/day): 4.93 g
Complete regression (Sarcoma 180 [4]; 5 mg/kg/day): 1/10
Tumor inhibition ratio (Sarcoma 180 [4]; 5 mg/kg/day): 61.8%
Average weight of tumor (Sarcoma 180 [5]; 1 mg/kg/day): 0.25 g
Complete regression (Sarcoma 180 [5]; 1 mg/kg/day): 8/10
Tumor inhibition ratio (Sarcoma 180 [5]; 1 mg/kg/day): 97.7%
Average weight of tumor (Sarcoma 180 [5]; 5 mg/kg/day): 0.54 g
Complete regression (Sarcoma 180 [5]; 5 mg/kg/day): 8/10
Tumor inhibition ratio (Sarcoma 180 [5]; 5 mg/kg/day): 95.2%
Toxicity after ultrasonic treatment (ICR-JCL mice; effect of ultrasonic treatment): lower toxicity
LD50 Intraperitoneal administration (ICR-JCL mice; intraperitoneal, ICR-JCL mice): above 5 g/kg
LD50 Intravenous administration (ICR-JCL mice; intravenous, ICR-JCL mice): 1500 mg/kg
LD50 Oral administration (ICR-JCL mice; oral, ICR-JCL mice): above 20 g/kg
Average weight of tumor (Meth-A; 5 mg/kg/day): 7.99 g
Complete regression (Meth-A; 5 mg/kg/day): 0/10
Tumor inhibition ratio (Meth-A; 5 mg/kg/day): 40.2%
Average weight of tumor (Meth-A; 20 mg/kg/day): 9.33 g
Complete regression (Meth-A; 20 mg/kg/day): 0/10
Tumor inhibition ratio (Meth-A; 20 mg/kg/day): 30.2%
Average weight of tumor (Sarcoma 180 [6]; 1 mg/kg/day): 0.92 g
Complete regression (Sarcoma 180 [6]; 1 mg/kg/day): 6/10
Tumor inhibition ratio (Sarcoma 180 [6]; 1 mg/kg/day): 91.6%
Average weight of tumor (Sarcoma 180 [6]; 5 mg/kg/day): 0.41 g
Complete regression (Sarcoma 180 [6]; 5 mg/kg/day): 8/10
Tumor inhibition ratio (Sarcoma 180 [6]; 5 mg/kg/day): 96.3%
Intrinsic viscosity [.eta.] [7]: 3.27 dL/g
